Assay results taken from patent publication US5604203A, “Analogs of peptide YY and uses thereof” (University of Cincinnati, priority 1994, dated 1997).
Square brackets hold non-standard residues; d marks the D form. Ends that are not written are not given here. Peptide text beside a SMILES is read from it. Bip = N[C@@H](Cc1ccc(-c2ccccc2)cc1)C(=O)O; 2Nal = N[C@@H](Cc1ccc2ccccc2c1)C(=O)O; Tic = O=C(O)[C@@H]1Cc2ccccc2CN1; 2Thi = N[C@@H](Cc1cccs1)C(=O)O

T1: intestinal PYY-preferring receptors (Rattus norvegicus, UniProt Q9ERC0)
T1 sequence (Q9ERC0 1-381): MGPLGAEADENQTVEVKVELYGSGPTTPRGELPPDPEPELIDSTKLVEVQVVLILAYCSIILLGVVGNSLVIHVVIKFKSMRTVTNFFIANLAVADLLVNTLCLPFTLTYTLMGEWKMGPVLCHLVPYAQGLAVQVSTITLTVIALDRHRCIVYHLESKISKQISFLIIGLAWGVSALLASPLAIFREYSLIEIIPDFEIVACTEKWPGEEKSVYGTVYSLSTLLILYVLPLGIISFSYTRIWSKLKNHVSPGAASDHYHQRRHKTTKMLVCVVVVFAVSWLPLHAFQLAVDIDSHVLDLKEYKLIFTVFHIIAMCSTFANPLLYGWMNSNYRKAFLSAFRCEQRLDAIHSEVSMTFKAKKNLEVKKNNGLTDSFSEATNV

B1: N-α-Ac-[Bth^27 ]PYY(22-36) (peptide)
peptide: ASLRHXLNLVTRQRY
HELM: PEPTIDE1{[ac].A.S.L.R.H.[O=C([C@H](Cc1csc2ccccc12)N[*:1])[*:2]].L.N.L.V.T.R.Q.R.Y.[am]}$$$$V2.0
SMILES: CC(=O)N[C@@H](C)C(=O)N[C@@H](CO)C(=O)N[C@@H](CC(C)C)C(=O)N[C@@H](CCCNC(=N)N)C(=O)N[C@@H](Cc1c[nH]cn1)C(=O)N[C@@H](Cc1csc2ccccc12)C(=O)N[C@@H](CC(C)C)C(=O)N[C@@H](CC(N)=O)C(=O)N[C@@H](CC(C)C)C(=O)N[C@H](C(=O)N[C@H](C(=O)N[C@@H](CCCNC(=N)N)C(=O)N[C@@H](CCC(N)=O)C(=O)N[C@@H](CCCNC(=N)N)C(=O)N[C@@H](Cc1ccc(O)cc1)C(N)=O)[C@@H](C)O)C(C)C
B2: N-α-Ac-[Bip^27 ]PYY(22-36) (peptide)
peptide: Ac-ASLRH[Bip]LNLVTRQRY-NH2
B3: N-α-Ac-[Nal^27 ]PYY(22-36) (peptide)
peptide: Ac-ASLRH[2Nal]LNLVTRQRY-NH2
B4: N-α-Ac-[Trp^27 ]PYY(22-36) (peptide)
peptide: Ac-ASLRHWLNLVTRQRY-NH2
B5: N-α-Ac-[Thi^27 ]PYY(22-36) (peptide)
peptide: Ac-ASLRH[2Thi]LNLVTRQRY-NH2
B6: N-α-Ac-[Tic^27 ]PYY(22-36) (peptide)
peptide: Ac-ASLRH[Tic]LNLVTRQRY-NH2
B7: N-α-Ac-[Phe^27,Thi^36 ]PYY(22-36) (peptide)
peptide: ASLRHFLNLVTRQRX
HELM: PEPTIDE1{[ac].A.S.L.R.H.F.L.N.L.V.T.R.Q.R.[O=C([C@H](Cc1cccs1)N[*:1])[*:2]].[am]}$$$$V2.0
SMILES: CC(=O)N[C@@H](C)C(=O)N[C@@H](CO)C(=O)N[C@@H](CC(C)C)C(=O)N[C@@H](CCCNC(=N)N)C(=O)N[C@@H](Cc1c[nH]cn1)C(=O)N[C@@H](Cc1ccccc1)C(=O)N[C@@H](CC(C)C)C(=O)N[C@@H](CC(N)=O)C(=O)N[C@@H](CC(C)C)C(=O)N[C@H](C(=O)N[C@H](C(=O)N[C@@H](CCCNC(=N)N)C(=O)N[C@@H](CCC(N)=O)C(=O)N[C@@H](CCCNC(=N)N)C(=O)N[C@@H](Cc1cccs1)C(N)=O)[C@@H](C)O)C(C)C
B8: [Glu^28 ]PYY(22-36) (peptide)
peptide: ASLRHYENLVTRQRY-NH2
B9: [Ala^32 ]PYY(22-36) (peptide)
peptide: ASLRHYLNLVARQRY-NH2
B10: [Ala^23,32 ]PYY(22-36) (peptide)
peptide: AALRHYLNLVARQRY-NH2

Target: T1, intestinal PYY-preferring receptors
Assay: not given
Conditions: not given

Molecule | IC50 [nM]
CC(=O)N[C@@H](C)C(=O)N[C@@H](CO)C(=O)N[C@@H](CC(C)C)C(=O)N[C@@H](CCCNC(=N)N)C(=O)N[C@@H](Cc1c[nH]cn1)C(=O)N[C@@H](Cc1ccc2ccccc2c1)C(=O)N[C@@H](CC(C)C)C(=O)N[C@@H](CC(N)=O)C(=O)N[C@@H](CC(C)C)C(=O)N[C@H](C(=O)N[C@H](C(=O)N[C@@H](CCCNC(=N)N)C(=O)N[C@@H](CCC(N)=O)C(=O)N[C@@H](CCCNC(=N)N)C(=O)N[C@@H](Cc1ccc(O)cc1)C(N)=O)[C@@H](C)O)C(C)C [Peptide 911, N-α-Ac-A S L R H [NaL] L N L V T R Q R Y--NH2] (HELM PEPTIDE1{[ac].A.S.L.R.H.[O=C([C@H](Cc1ccc2ccccc2c1)N[*:1])[*:2]].L.N.L.V.T.R.Q.R.Y.[am]}$$$$V2.0) | 0.39

Same assay, conditions: BINDING IC50 (nM), Table 1; 125I-PYY, rat jejunal membranes; mean of three separate experiments

Molecule | IC50 [nM]
ASLRHYLNLVARQRY-NH2 [[Ala^32]PYY(22-36), A S L R H Y L N L V [Ala] R Q R Y--NH2] | 71
AALRHYLNLVARQRY-NH2 [[Ala^23,32]PYY(22-36), A [Ala] L R H Y L N L V [Ala] R Q R Y-NN2] | > 10000
Ac-ASLRHFLNLVTRQRY-NH2 [N-α-Ac-[Phe^27]PYY(22-36)] | 0.8
ASLRHYENLVTRQRY-NH2 [[Glu^28]PYY(22-36), A S L R H Y [Glu] N L V T R Q R Y--NH2] | 199
CC(=O)N[C@@H](C)C(=O)N[C@@H](CO)C(=O)N[C@@H](CC(C)C)C(=O)N[C@@H](CCCNC(=N)N)C(=O)N[C@@H](Cc1cnc[nH]1)C(=O)N[C@@H](Cc1ccc(O)cc1)C(=O)N[C@@H](CC(C)C)C(=O)N[C@@H](CC(N)=O)C(=O)N[C@@H](CC(C)C)C(=O)N[C@H](C(=O)N[C@H](C(=O)N[C@@H](CCCNC(=N)N)C(=O)N[C@@H](CCC(N)=O)C(=O)N[C@@H](CCCNC(=N)N)C(=O)N[C@@H](Cc1ccc(O)cc1)C(N)=O)[C@@H](C)O)C(C)C [N-α-Ac-PYY(22-36), N-α-Ac-A S L R H Y L N L V T R Q R Y--NH2] | 1.12

Same assay, conditions: IC50 (nM), Table 2; receptor binding data

Molecule | IC50 [nM]
CC(=O)N[C@@H](C)C(=O)N[C@@H](CO)C(=O)N[C@@H](CC(C)C)C(=O)N[C@@H](CCCNC(=N)N)C(=O)N[C@@H](Cc1c[nH]cn1)C(=O)N[C@@H](Cc1cccs1)C(=O)N[C@@H](CC(C)C)C(=O)N[C@@H](CC(N)=O)C(=O)N[C@@H](CC(C)C)C(=O)N[C@H](C(=O)N[C@H](C(=O)N[C@@H](CCCNC(=N)N)C(=O)N[C@@H](CCC(N)=O)C(=O)N[C@@H](CCCNC(=N)N)C(=O)N[C@@H](Cc1ccc(O)cc1)C(N)=O)[C@@H](C)O)C(C)C [Peptide 916] (HELM PEPTIDE1{[ac].A.S.L.R.H.[O=C([C@H](Cc1cccs1)N[*:1])[*:2]].L.N.L.V.T.R.Q.R.Y.[am]}$$$$V2.0) | 0.095
Ac-ASLRHWLNLVTRQRY-NH2 [Peptide 915, N-α-Ac-A S L R H [Trp] L N L V T R Q R Y--NH2] | 0.1
CC(=O)N[C@@H](C)C(=O)N[C@@H](CO)C(=O)N[C@@H](CC(C)C)C(=O)N[C@@H](CCCN=C(N)N)C(=O)N[C@@H](Cc1c[nH]cn1)C(=O)N[C@@H](Cc1ccc(-c2ccccc2)cc1)C(=O)N[C@@H](CC(C)C)C(=O)N[C@@H](CC(N)=O)C(=O)N[C@@H](CC(C)C)C(=O)N[C@H](C(=O)N[C@H](C(=O)N[C@@H](CCCN=C(N)N)C(=O)N[C@@H](CCC(N)=O)C(=O)N[C@@H](CCCN=C(N)N)C(=O)N[C@@H](Cc1ccc(O)cc1)C(N)=O)[C@@H](C)O)C(C)C [Peptide 906, N-α-Ac-A S L R H [Bip] L N L V T R Q R Y--NH2] (HELM PEPTIDE1{[ac].A.S.L.R.H.[O=C([C@H](Cc1ccc(-c2ccccc2)cc1)N[*:1])[*:2]].L.N.L.V.T.R.Q.R.Y.[am]}$$$$V2.0) | 4.46
CC(=O)N[C@@H](C)C(=O)N[C@@H](CO)C(=O)N[C@@H](CC(C)C)C(=O)N[C@@H](CCCNC(=N)N)C(=O)N[C@@H](Cc1c[nH]cn1)C(=O)N[C@@H](Cc1csc2ccccc12)C(=O)N[C@@H](CC(C)C)C(=O)N[C@@H](CC(N)=O)C(=O)N[C@@H](CC(C)C)C(=O)N[C@H](C(=O)N[C@H](C(=O)N[C@@H](CCCNC(=N)N)C(=O)N[C@@H](CCC(N)=O)C(=O)N[C@@H](CCCNC(=N)N)C(=O)N[C@@H](Cc1ccc(O)cc1)C(N)=O)[C@@H](C)O)C(C)C [Peptide 905, N-α-Ac-A S L R H [Bth] L N L V T R Q R Y--NH2] (HELM PEPTIDE1{[ac].A.S.L.R.H.[O=C([C@H](Cc1csc2ccccc12)N[*:1])[*:2]].L.N.L.V.T.R.Q.R.Y.[am]}$$$$V2.0) | 0.22
CC(=O)N[C@@H](C)C(=O)N[C@@H](CO)C(=O)N[C@@H](CC(C)C)C(=O)N[C@@H](CCCNC(=N)N)C(=O)N[C@@H](Cc1cnc[nH]1)C(=O)N[C@@H](Cc1ccc(O)cc1)C(=O)N[C@@H](CC(C)C)C(=O)N[C@@H](CC(N)=O)C(=O)N[C@@H](CC(C)C)C(=O)N[C@H](C(=O)N[C@H](C(=O)N[C@@H](CCCNC(=N)N)C(=O)N[C@@H](CCC(N)=O)C(=O)N[C@@H](CCCNC(=N)N)C(=O)N[C@@H](Cc1ccc(O)cc1)C(N)=O)[C@@H](C)O)C(C)C [N-α-Ac-PYY(22-36), N-α-Ac-A S L R H Y L N L V T R Q R Y--NH2] | 0.08

Same assay, conditions: IC50 (nM), Table 3; binding activity

Molecule | IC50 [nM]
Ac-YSLRHFLNLVTRQRY-NH2 [Peptide 910, N-α-Ac-[Tyr] S L R H [Phe] L N L V T R Q R Y--NH2] | 0.1
CC(=O)N[C@@H](C)C(=O)N[C@@H](CO)C(=O)N[C@@H](CC(C)C)C(=O)N[C@@H](CCCNC(=N)N)C(=O)N[C@@H](Cc1cnc[nH]1)C(=O)N[C@@H](Cc1ccccc1)C(=O)N[C@@H](CC(C)C)C(=O)N[C@@H](CC(N)=O)C(=O)N[C@@H](CC(C)C)C(=O)N[C@H](C(=O)N[C@H](C(=O)N[C@@H](CCCNC(=N)N)C(=O)N[C@@H](CCC(N)=O)C(=O)N[C@@H](CCCNC(=N)N)C(=O)N[C@@H](Cc1cccs1)C(N)=O)[C@@H](C)O)C(C)C [Peptide 917, M-α-Ac-A S L R H (Phel L N L V T R Q R [Thi]-NH2] (HELM PEPTIDE1{[ac].A.S.L.R.H.F.L.N.L.V.T.R.Q.R.[O=C([C@H](Cc1cccs1)N[*:1])[*:2]].[am]}$$$$V2.0) | 4.46
Ac-FSLRHFLNLVTRQRY-NH2 [Peptide 908, N-α-Ac-[Phe]S L R N [Phe] L N L V T R Q R Y--NH2] | 11.2
CC(=O)N[C@@H](C)C(=O)N[C@@H](CO)C(=O)N[C@@H](CC(C)C)C(=O)N[C@@H](CCCNC(=N)N)C(=O)N[C@@H](Cc1c[nH]cn1)C(=O)N[C@@H](Cc1ccc(Cl)cc1)C(=O)N[C@@H](CC(C)C)C(=O)N[C@@H](CC(N)=O)C(=O)N[C@@H](CC(C)C)C(=O)N[C@H](C(=O)N[C@H](C(=O)N[C@@H](CCCNC(=N)N)C(=O)N[C@@H](CCC(N)=O)C(=O)N[C@@H](CCCNC(=N)N)C(=O)N[C@@H](Cc1ccc(O)cc1)C(N)=O)[C@@H](C)O)C(C)C [Peptide 904, N-α-Ac-A S L R H [Pcp] L N L V T R Q R Y--NH2] (HELM PEPTIDE1{[ac].A.S.L.R.H.[O=C([C@H](Cc1ccc(Cl)cc1)N[*:1])[*:2]].L.N.L.V.T.R.Q.R.Y.[am]}$$$$V2.0) | 1.58

Target: PYY receptor of rat jejunal epithelial plasma membranes (rat)
Assay: competition with 125I-PYY on rat jejunal membranes
Conditions: not given

Molecule | IC50 [nM]
N-α-Ac-[Phe^27 ]PYY(25-36) (peptide) | 0.15
B1 | 0.22
B2 | 4.46
B3 | 0.39
B4 | 0.1
B5 | 0.095
B6 | 4.5

Target: PYY receptor of rat jejunal epithelial plasma membranes (rat)
Assay: competitive binding, done as described above (125I-PYY, rat jejunal membranes)
Conditions: not given

Molecule | IC50 [nM]
B7 | 4.46

Target: PYY receptor of rat jejunal epithelial plasma membranes (rat)
Assay: competition with 0.05 nM 125I-PYY on rat jejunal epithelial plasma membranes
Conditions: not given

Molecule | IC50 [nM]
NPY (neuropeptide Y) (ligand) | 2
PYY(22-36) (peptide) | 4
[im-DNP-His^26 ]PYY (peptide) | 4
B8 | 199
B9 | 71
B10 | > 10000
